{"source": "patent US20060009452A1", "about": "“Therapeutic targeting of PARC/CCL18 and its signaling in pulmonary fibrosis” (priority 2004, published 2006)", "key": {"lung fibroblasts [1]": {"tested_on": "lung fibroblasts", "assay": "Western blotting of fibroblast culture supernatants for collagen type I / α1(I)", "format": "cell-based, human", "settings": "lung fibroblast cultures, 48 h; for effect on PARC-stimulated collagen production: inhibitor plus PARC; for effect on TGF-β-stimulated collagen production: inhibitor plus TGF-β", "procedure": "Collagen Production Assays. Collagen was quantified as described elsewhere (Atamas S P et al.). Briefly, fibroblasts were cultured with β-aminopropionitrile (Sigma) to prevent collagen cross-linking, and Western blotting assays for collagen were performed using rabbit affinity purified anti-collagen type I antibody (Rockland, Gilbertsville, Pa.). Before electrophoresis, samples were reduced and denatured by boiling in Laemmli buffer containing β-mercaptoethanol. Human purified collagen type I (Southern Biotech, Birmingham, Ala.) was used as a positive control in these assays. The identity of collagen bands was confirmed by sensitivity to pepsin and collagenase (both from Sigma) digestion, as described (Atamas S P et al.). Under these conditions, pro-collagen appears as a single or double band around 175 kDa (Gaidarova S et al., Stefanovic B et al.). Images were collected using a Storm densitometer and band densities analyzed with ImageQuant software (Molecular Dynamics, Sunnyvale, Calif.).\nWestern blotting assays for collagen were performed using rabbit affinity purified anti-collagen type I antibody (Rockland, Gilbertsville, Pa.). Before electrophoresis, samples were reduced and denatured by boiling in Laemmli buffer containing β-mercaptoethanol. Human purified collagen type I (Southern Biotech, Birmingham, Ala.) was used as a positive control in these assays.\nCollagen was quantified by Western blotting and the identity of collagen bands was confirmed by sensitivity to pepsin and collagenase digestion as described elsewhere in Atamas et al. (Am. J. Respir. Cell. Mol., 29:743-749 (2003)). In these assays, pro-collagen appears as a single or double band with a molecular weight of approximately 175 kDa (4,27,28)."}, "[2]": {"molecular_target": "Autocrine (active) TGF-β secreted by human primary lung fibroblast cultures (human)", "assay": "cell-based or functional assay"}, "lung fibroblasts [3]": {"tested_on": "lung fibroblasts", "assay": "Collagen production, metabolic labeling with 14C-proline, PAGE and autoradiography", "format": "cell-based, human", "settings": "for effect on PARC activated collagen production: LF2 lung fibroblasts, 14C-proline", "procedure": "Collagen Production Assays. Production of collagen was assessed using metabolic labeling with ^14C-proline and Western blotting with anti-collagen type I antibody. For metabolic labeling of collagen, fibroblasts were plated at 2×10^5 cells/well in 6-well plates (Costar, Cambridge, Mass.), in duplicates, incubated overnight in 3 ml/well of high serum medium, and then for 24 h in low-serum medium. After that, the culture medium was replaced with 1 ml/well of fresh low serum medium with or without added test substances and containing ^14C-proline at 1 μCi/ml (Amersham Pharmacia Biotech). After incubation for the desired periods of time, the cell culture supernatants were collected, rapidly frozen in liquid nitrogen and freeze-dried at −70° C. The pellets were dissolved in 100 μl of reducing Laemmli buffer per 1 ml of the cell culture supernatant, and the samples were electrophoretically separated in 7.5% acrylamide gels. Alternatively, samples were concentrated 10-fold by filter centrifugation on 30K Ultrafree-MC filters (Millipore, Bedford, Mass.). Fluorographic images were developed using EN[3H]ANCE autoradiography enhancer (NEN, Boston, Mass.). Gel images were acquired using Storm densitometer (Molecular Dynamics, Sunnyvale, Calif.), and the densities of the bands were analyzed with ImageQuant software (Molecular Dynamics). Dependence of collagen production by fibroblast cultures on the dose of PARC and duration of stimulation were evaluated using one-way ANOVA with post hoc testing.\nThe identity of collagen bands was confirmed by sensitivity to pepsin and collagenase (both from Sigma) digestion. For pepsin digestion, 2 μl of 1 Macetic acid were added to 40 μl of concentrated fibroblast culture supernatant, followed by 1 μl of pepsin stock, to achieve final concentration of pepsin as indicated in the text. After 15 min of digestion at room temperature, reaction was stopped with 4 μl of 1 M Tris base and 40 μl of reducing Laemmli buffer. For collagenase digestion, 1 μl of 4 U/ml bacterial collagenase and 1 μl of protease inhibitor cocktail (Sigma) were added to 40 μl of sample and digestion performed at room temperature for 30 min. The bacterial collagenase was highly purified and had minimal clostripain and neutral protease activity, as tested by the manufacturer, according to the product information sheet.\nTo test effects of rhPARC on collagen protein production by lung and dermal fibroblast cell lines, fibroblast cultures were incubated for 48 h with or without 30 ng/ml and 300 ng/ml rhPARC in the low-serum cell culture medium containing 14Cproline for metabolic labeling of collagen. Fibroblast culture supernatants contained two 14C-proline containing bands in gel electrophoresis under reducing conditions (FIGS. 13A and 13B). Digestion with chromatographically pure bacterial collagenase in the presence of protease inhibitors eliminated the bands completely (FIG. 13A). To confirm the identity of these bands, we conducted Western blotting experiments in reducing conditions of fibroblast culture supernatants using an anti-collagen type I antibody, that recognizes α1(I) collagen but not other collagen chains. Digestion with pepsin caused expected decrease in the apparent molecular weight of the immunoreactive collagen from ˜175 kD to ˜125 kD (FIG. 13C)."}, "ERK1/2": {"tested_on": "ERK1/2", "assay": "Immunoblotting for phosphorylation of ERK1/2", "format": "cell-based, human", "settings": "LF1, rhPARC 15 min, toxin 10 ng/ml"}, "Smad3": {"tested_on": "Smad3", "assay": "Smad3 immunoprecipitation and phosphorylation Western blot", "format": "cell-based, human", "settings": "fibroblasts activated with cytokine", "procedure": "To determine if PARC stimulated phosphorylation of Sp1 and Smad3, these factors were immunoprecipitated from lysates of fibroblasts that had been activated with recombinant human PARC for up to 24 hours, and the levels of their phosphorylation were tested in Western blotting assays using anti-phosphoserine and anti-phospho-Smad2/3 antibodies. Equal loading was controlled by stripping the membranes and re-developing them with anti-Sp1, anti-Smad3 and anti-Smad2/3 antibodies (FIG. 17).\nPreparation of fibroblast lysates, immunoprecipitation of Sp1 and Smad2/3, normalization of protein concentration in the samples with BioRad assays, electrophoretic separation, Western blotting, membrane stripping and re-development with different antibodies were performed as described in Atamas et al. (Am. J. Respir. Cell. Mol., 29:743-749 (2003); J. Immunol. 168: 1139-1145 (2002); and Arthritis Rheum., 42:1168-1178 (1999)), which are hereby incorporated by reference. Rabbit antibodies for total Smad2/3 and Sp1 were from Upstate (Waltham, Masss.). Antiphospho-Smad2/3 antibody and goat antibody for total Smad3 were from Santa Cruz Biotechnology (Santa Cruz, Calif.), as was anti-gp130 antibody used to confirm equal loading of the samples. Antiphosphoserine antibody was from Biomol (Plymouth Meeting, Pa.)."}, "α2(I) collagen mRNA": {"tested_on": "α2(I) collagen mRNA", "assay": "Real-time PCR for α2(I) collagen mRNA relative to 18S rRNA", "format": "cell-based, human", "settings": "10 μg/ml actinomycin D before stimulation with PARC"}, "fibroblasts": {"tested_on": "fibroblasts", "settings": "reported for MCP-1; cited from earlier work"}, "[4]": {"settings": "listed as Recombinant latency-associated peptide"}}, "note": "Entries after “also recorded” stand apart in the source; their conditions may differ. *1 amine or outer side, *2 acyl side, *3 side chain or, on linkers, in order; H or OH if unused. Where a SMILES comes first, the peptide text is derived from it. Bridges are numbered along the chain shown (N, C = ends). Roman numbers before positions name the chains, in order. [ ]: non-standard residue; d: D form. Actinocin(9to1) = Cc1c2oc3c(C)ccc(C(=O)[*:1])c3nc-2c(C(=O)[*:2])c(N)c1=O; NMeV = CN[C@H](C(=O)O)C(C)C; Sar = CNCC(=O)O"}
{"compound": "Aprotinin [reference compound]", "values": [{"measurement": "effect on PARC-stimulated collagen production", "setting": "lung fibroblasts [1]", "value": "failed to inhibit the effect of PARC"}, {"measurement": "effect on TGF-β-stimulated collagen production", "setting": "lung fibroblasts [1]", "value": "had no effect on collagen production"}]}
{"compound": "Neutralizing anti-pan-TGF-β antibody, monoclonal mouse IgG1 clone 1D11 (R&D Systems)", "values": [{"measurement": "mink lung epithelial cell proliferation (thymidine incorporation); antibody concentration that abrogates the inhibition", "setting": "[2]", "value": 1, "unit": "µg/mL"}]}
{"compound": "COc1cccc(-c2cc(=O)c3ccccc3o2)c1N", "note": "[PD98059, reference compound]", "values": [{"measurement": "effect on PARC activated collagen production", "setting": "lung fibroblasts [3]", "value": "inhibited PARC activated collagen production"}]}
{"compound": "Bordetella PT [reference compound]", "values": [{"measurement": "effect on PARC-stimulated ERK phosphorylation", "setting": "ERK1/2", "value": "inhibited phosphorylation of ERK; also recorded: block PARC-stimulated ERK phosphorylation"}]}
{"compound": "rhTGF-β1: Recombinant human TGF-β1 from R&D Systems, positive control for fibroblast stimulation", "values": [{"measurement": "phosphorylation of immunoprecipitated Smad3", "setting": "Smad3", "value": "increased phosphorylation of Smad3"}]}
{"compound": "Cc1c2oc3c(C)ccc(C(=O)N[C@@H]4C(=O)N[C@H](C(C)C)C(=O)N5CCC[C@H]5C(=O)N(C)CC(=O)N(C)[C@@H](C(C)C)C(=O)O[C@@H]4C)c3nc-2c(C(=O)N[C@@H]2C(=O)N[C@H](C(C)C)C(=O)N3CCC[C@H]3C(=O)N(C)CC(=O)N(C)[C@@H](C(C)C)C(=O)O[C@@H]2C)c(N)c1=O", "note": "[actinomycin D, Actinomycin D, reference compound] (I: T[dV]P[Sar][NMeV] / II: T[dV]P[Sar][NMeV]; ester I:1-I:C, II:1-II:C; linker I:N-II:N via Actinocin(9to1))", "values": [{"measurement": "effect on PARC-induced increase in collagen mRNA", "setting": "α2(I) collagen mRNA", "value": "completely abrogated the increase in collagen mRNA"}]}
{"compound": "NC(=O)c1ccc(-c2nc(-c3ccc4c(c3)OCO4)c(-c3ccccn3)[nH]2)cc1", "note": "[SB431542, reference compound]", "values": [{"measurement": "effect on TGF-β-stimulated collagen production", "setting": "lung fibroblasts [1]", "value": "blocked TGF-β-stimulated; also recorded: abrogated TGF-β-stimulated"}]}
{"compound": "rhLAP: Latency-associated peptide (R&D Systems) used for TGF-β neutralization", "values": [{"measurement": "effect on PARC-stimulated collagen production", "setting": "lung fibroblasts [1]; [4]", "value": "failed to block the effect of PARC"}, {"measurement": "effect on TGF-β-stimulated collagen production", "setting": "lung fibroblasts [1]", "value": "inhibited stimulating effect of TGF-β"}, {"measurement": "effect on TGF-β-stimulated collagen production", "setting": "lung fibroblasts [1]; listed as Recombinant human LAP", "value": "inhibited stimulating effect of TGF-β"}, {"measurement": "effect on TGF-β-stimulated collagen production", "setting": "lung fibroblasts [1]; [4]", "value": "inhibited the effect of TGF-β"}]}
{"compound": "rhIL-4: recombinant human interleukin 4 purchased from R&D Systems", "values": [{"measurement": "combined density of procollagen bands, fold higher than non-stimulated control", "setting": "lung fibroblasts [3]; LF2 cells, 10 ng/ml rhIL-4, 48 h", "value": 2.9, "unit": "fold"}]}
{"compound": "C[S+]([O-])c1ccc(-c2nc(-c3ccncc3)c(-c3ccc(F)cc3)[nH]2)cc1", "note": "(stereo not drawn) [SB203580, reference compound]", "values": [{"measurement": "effect on PARC activated collagen production", "setting": "lung fibroblasts [3]", "value": "had no effect"}]}
{"compound": "MCP-1: CC chemokine known to induce collagen production in pulmonary fibroblasts through autocrine TGF-β", "values": [{"measurement": "concentration stimulating detectable collagen production", "setting": "fibroblasts", "value": "100 to 400", "unit": "ng/mL"}]}
